# Laboratory results published in paper PMC12973313 (Chemical Science, 2026).
# Where two headings read alike, the source gives them in different places.
# Experiments:
# [1] = parameters: method as in PMID 29633393; settings: D2O 5% EtOH, 5.56 mM, 298 K; cited from earlier work
# [2] = parameters: method as in PMID 29633393; settings: equal K/dimerization model, DMSO-d6 0.5% H2O; cited from earlier work
# Caco-2 cell monolayer = experiment: Bi-directional permeability in Caco-2 cell line; assay type: in vitro ADME
# Source text: (§1) Next, to gauge the suitability of SSAs for oral dosing, 9 was subjected to a Caco-2 permeability assay which is used to both predict human intestinal permeability and investigate drug efflux, predicting in vivo compound absorption. This assay allows assessment of a compound's ability to undergo transport from the apical to the basolateral (A–B) compartments of the cell monolayer and vice versa (B–A). […] This is likely to result in poor absorption when dosed orally and therefore further development would be necessary for these agents to become suitable for oral administration. […]
# (§2) The ionspray voltage was 5500V.
# (§3) Bi-directional Permeability in Caco-2 Cell Line:
# (§4) The bi-directional permeability in Caco-2 cell lines was determined by seeding cells onto an HTS Transwell plate. Cells were cultivated for 14-18 days in a cell culture incubator at 37°C, 5% CO2, 95% relative humidity. Cell culture medium was replaced every other day. To assess monolayer integrity the transepithelial electrical resistance (TEER) across the monolayer was measured using Millicell Epithelial volt-ohm meter prior to assay and Lucifer yellow (LY) fluorescence measurement post-assay.
# (§5) Test compound was prepared in DMSO and diluted in Hank’s Balanced Saline Solution (HBSS, pH 7.4) to a final concentration of 5 µM. Compound was added to the donor compartment of the transwell plate for both apical to basolateral (A>B) and basolateral to apical (B>A) measurements, with blank HBSS being added to the receiver compartment. The transwell plate was then incubated at 37°C, 5% CO2 for 2 hours.
# (§6) Samples were taken at T=0 and T=2 hours determine the concentration of initial donor sample, and the concentration of receiver and donor wells post-incubation, respectively.
# (§7) The samples were quenched with solvent containing internal standard (IS). The supernatant was mixed with an appropriate volume of ultra-pure water before LC-MS/MS analysis.
# (§8) Samples were analysed using a Shimadzu Nexera LC Binary Gradient LC-30AD (Shimadzu Inc, Kyoto), coupled to a Sciex 6500+ (AB Inc., Illinois). Separation of compounds was achieved using a HALO 90Å biphenyl (2.7µm,2.1x50mm) (Advanced Materials Technology, Wilmington) column at a temperature of 40°C. A binary mobile phase gradient at a flow rate of 0.7 mL/min was used. Initial LC conditions comprised of 95% solvent A (0.1% formic acid in water) and 5% solvent B (0.1% formic acid in acetonitrile). This was ramped to 95% solvent B at 0.7 minutes, held for 0.5 minutes and then immediately returned to initial conditions. Sample analysis was by electrospray ionisation combined with multiple reaction monitoring in positive ion mode. The ion spray voltage was 5500V.
# (§9) In vitro Absorption, Distribution and Metabolism results
# (§10) Table S1 – Result from solubility assays performed in PBS pH 7.4 for SSA 9.
# (§11) Table S2 – Summary of results from Caco-2 permeability assays for SSA 9. Papp is given as […]
# (§12) cm/s. A = apical; B = basolateral. Recovery = % SSA recovered from the assay after 2 hours.
# (§13) ID Papp (A-B) % Recovery Papp (B-A) % Recovery Efflux Ratio
# (§14) Table S3 – Summary of results from human plasma protein binding assays for SSA 9. % Bound = % of SSA bound to the plasma proteins after 6 hours incubation at 37 °C. Low % […]
# (§15) = > 99 %. % Recovery = % SSA recovered from the assay after 6 hours.
# (§16) ID % Bound % Recovery % Stability
# (§17) Table S4 – Summary of results from mouse, rat and human microsomal stability assays for SSA 9. The in vitro half-life (t1/2) and microsomal intrinsic clearance (CLint) were calculated from the elimination rate (k, the slope of the natural log of concentration verses time curve), assuming first order kinetics, using the formulae t1/2 = 0.693/-k and CLint = 0.693/t1/2 […]. This compound would be classed as a low clearance compound in all three species. […]
# [3] = Bi-directional permeability in Caco-2 cell line; assay type: in vitro ADME; settings: human; for recovery at 2 h, 5 µM: Caco-2, pH 7.4, after 2 hours
# Source text: as §1, §2, §3, §4, §5, §6, §7, §8, §9, §10, §11, §12, §13, §14, §15, §16, §17
# [4] = Kinetic solubility in PBS pH 7.4; assay type: physicochemical; settings: upper limit 300 µM
# [5] = Metabolic stability in liver microsomes; assay type: in vitro ADME, mouse
# Description: Following this, the metabolic stability of 9 was determined against mouse, rat, and human liver microsomes. […] Within this assay the stability of the intact parent compound is monitored with respect to time, during incubation at 37 °C in the presence and absence of the co-factor NADPH – required for cytochrome p450 activity.
# Metabolic Stability in Rat, Mouse and Human Liver Microsomes:
# The metabolic stability of compounds at a concentration of 1 µM, in rat, mouse and human liver microsomes (BD Gentest, Franklin Lakes NJ) was measured following incubation with […]
# (NADPH) at 37 °C. Aliquots of each incubation were removed at 0.5, 5, 15, 30 and 60 minutes. The reaction was stopped by the addition of cold acetonitrile containing analytical […]
# Samples were then centrifuged at 3,220 g for 40 minutes. The supernatant was aliquoted and added to ultra-pure H2O in a 1:1 ratio in preparation for LC-MS/MS analysis.
# Incubations were conducted in duplicate; control incubations (substituting PBS for NADPH) were conducted simultaneously.
# Samples were analysed using a Shimadzu Shimadzu Nexera LC Binary Gradient LC-30AD (Shimadzu Inc, Kyoto), coupled to a Sciex 5500 mass spectrometer (AB Inc., Illinois) for rat and mouse microsomes and a Sciex 6500+ for human microsomes. Separation achieved using an XSelect HSS T3 column (2.5µm, 50 x 2.1 mm) (Waters Ltd., Wilmslow) at a temperature of 40°C and a binary mobile phase gradient at a flow rate of 0.7 mL/min. Initial […]
# (0.1% formic acid in acetonitrile).
# 0.5 minutes and then immediately returned to initial conditions. Sample analysis was by electrospray ionisation combined with multiple reaction monitoring in positive ion mode.
# as §2
# Bi-directional Permeability in Caco-2 Cell Line: […]
compound,measurement,setting,value
O=C(O)CNC(=O)Nc1ccc(C(F)(F)F)cc1 [SSA 1],Q NMR (%) SSA anion,[1],68 (ref. [30]) %
same,Kdim (M^-1),[2],41 (±1.3%)[30] M^−1
O=C(Nc1ccc(C(F)(F)F)cc1)N[C@H](Cc1ccccc1)C(=O)O [SSA 9],Papp (B-A),"Caco-2 cell monolayer; 5 µM, 2 hours, basolateral to apical",16.76 10-6 cm/s
same,Efflux Ratio,Caco-2 cell monolayer; Caco-2,96.91
same,Recovery (%) AP-BL,Caco-2 cell monolayer; after 2 hours,110.78%
same,Recovery (%) BL-AP,Caco-2 cell monolayer; after 2 hours,97.74%
same,"Papp B→A at 2 h, 5 µM","[3]; Caco-2, pH 7.4, 5 µM, 2 hours, basolateral to apical",16.8 ×10⁻⁶ cm/s
same,"efflux ratio at 2 h, 5 µM","[3]; Caco-2, pH 7.4, Caco-2",96.9
same,"recovery at 2 h, 5 µM",[3]; read-out: Recovery (%) AP-BL,111%
same,"recovery at 2 h, 5 µM",[3]; read-out: Recovery (%) BL-AP,97.7%
same,"Papp A→B at 2 h, 5 µM","[3]; Caco-2, pH 7.4, 5 µM, 2 hours, apical to basolateral",0.17 ×10⁻⁶ cm/s
same,solubility at 2 h,"[4]; phosphate buffered saline, 25 °C, pH 7.4, aqueous buffer, kinetic from dmso stock",271 µM
same,Solubility in PBS pH 7.4 (μM),"[4]; 25°C, 2 hours",271 μM
same,microsomal CLint at 1 µM,"[5]; liver microsomes, mouse microsomes",< 7.5 µL/min/mg
same,Hepatic Extraction Ratio (ER),[5]; mouse,< 0.26
same,Predicted Hepatic CLH,[5]; mouse,< 23.07 mL/min/kg
same,In vitro t1/2,"[5]; mouse, 1 µM, 0.5 mg protein/mL",> 3.0797 h
same,Remaining percentage (%) 0.5 min,"[5]; mouse, +Cofactors",100.00%
same,Remaining percentage (%) 5 min,"[5]; mouse, +Cofactors",101.43%
same,Remaining percentage (%) 15 min,"[5]; mouse, +Cofactors",97.80%
same,Remaining percentage (%) 30 min,"[5]; mouse, +Cofactors",99.51%
same,Remaining percentage (%) 60 min,"[5]; mouse, +Cofactors",99.55%
same,Remaining percentage (%) 0.5 min,"[5]; mouse, -Cofactors",100.00%
same,Remaining percentage (%) 60 min,"[5]; mouse, -Cofactors",101.52%
same,half-life at 1 µM,"[5]; mouse, liver microsomes, mouse, 1 µM, 0.5 mg protein/mL, read-out: In vitro t1/2",> 3.08 h
same,CLint scaled at 1 µM,"[5]; mouse, liver microsomes, read-out: Scale-up CLint",< 31 mL/min/kg
